From patent US20170334899A1, “AMINO-SUBSTITUTED ISOTHIAZOLES” (Bayer Pharma Aktiengesellschaft, priority 2014, published 2017)

Assays:
HeLa = test: Proliferation assay (crystal violet), HeLa; type: cell-based; conditions: Homo sapiens, HeLa, 96 h, HeLa cells; 4 days incubation; crystal violet staining; read-out: IC50 inhibition of proliferation, HeLa
Method in brief: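 Absorbance at 595 nm of crystal-violet-stained cells after 4 days' exposure to 0.001–10 μM compound (0.5% DMSO). Values normalized to a day-0 plate (0%) and untreated cells (100%); IC50 by 4-parameter fit.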

[1] = system: human cervical tumor cell line HeLa (ATCC CCL-2); test: SAC-Formation - Paclitaxel-Induced Assay; type: cell-based; conditions: Homo sapiens, HeLa, 24 h, HeLa cells, paclitaxel 0.05 μM, test range 0.005 μM-20 μM, read-out: IC50 [mol/l] SAC-Formation - Paclitaxel-Induced Assay
Method in brief: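 Read-out is high-content imaging of anti-phospho-H3 Ser10 (mitosis) and Hoechst 33342 (DNA, cell number), with decreased mitotic fraction marking checkpoint breakthrough. Compounds (0.005–20 μM) and 0.05 μM paclitaxel co-added to overnight-plated HeLa for 24 h at 37° C; four-parameter Hill fit.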

Structure (SMILES)	IC50 (HeLa)	IC50 [1]
Cc1nsc(Nc2cnc(C(F)(F)F)cn2)c1C(=O)Nc1ccc(F)c(OCCCNCCC(F)(F)F)c1 [Example 307, N-(4-fluoro-3-{3-[(3,3,3-trifluoropropyl)amino]propoxy}phenyl)-3-methyl-5-{[5-(trifluoromethyl)pyrazin-2-yl]amino}-1,2-thiazole-4-carboxamide]	690 nM	380 nM
Cc1nsc(Nc2cnc(C(F)(F)F)cn2)c1C(=O)Nc1ccc(OCCNCCF)nc1 [Example 321, N-(6-{2-[(2-fluoroethyl)amino]ethoxy}pyridin-3-yl)-3-methyl-5-{[5-(trifluoromethyl)pyrazin-2-yl]amino}-1,2-thiazole-4-carboxamide]	3400 nM	1100 nM
Cc1nsc(Nc2cnc(C(F)(F)F)cn2)c1C(=O)Nc1ccc(C(=O)N2CCN(C)CC2)cc1 [Example 262, 3-methyl-N-{4-[(4-methylpiperazin-1 yl)carbonyl]phenyl}-5-{[5-(trifluoromethyl)pyrazin-2-yl]amino}-1,2-thiazole-4-carboxamide]	9400 nM	4800 nM
Cc1nsc(Nc2cnc(C(F)(F)F)cn2)c1C(=O)Nc1ccc(OCCNCC(F)F)nc1 [Example 305, N-(6-{2-[(2,2-difluoroethyl)amino]ethoxy}pyridin-3-yl)-3-methyl-5-{[5-(trifluoromethyl)pyrazin-2-yl]amino}-1,2-thiazole-4-carboxamide]	1100 nM	220 nM
Cc1nsc(Nc2cnc(C(F)(F)F)cn2)c1C(=O)Nc1ccc(F)c(OCC2CCN(CCF)C2)c1 (stereo not drawn) [Example 317, N-(4-fluoro-3-{[1-(2-fluoroethyl)pyrrolidin-3-yl]methoxy}phenyl)-3-methyl-5-{[5-(trifluoromethyl)pyrazin-2-yl]amino}-1,2-thiazole-4-carboxamide]	450 nM	610 nM
Cc1nsc(Nc2cncc(C(F)(F)F)n2)c1C(=O)Nc1ccc(C(=O)NC2CN(CC(F)(F)F)C2)cc1 [Example 280, 3-methyl-N-(4-{[1-(2,2,2-trifluoroethyl)azetidin-3-yl]carbamoyl}phenyl)-5-{[6-(trifluoromethyl)pyrazin-2-yl]amino}-1,2-thiazole-4-carboxamide]	> 10000 nM	3700 nM

Next, values leading:

IC50 (HeLa)	IC50 [1]	Structure (SMILES)
350 nM	56 nM	Cc1nsc(Nc2cnc(C(F)(F)F)cn2)c1C(=O)Nc1ccc(OC2CCN(CC(F)(F)F)C2)nc1 (stereo not drawn) [Example 297, 3-methyl-N-(6-{[1-(2,2,2-trifluoroethyl)pyrrolidin-3-yl]oxy}pyridin-3-yl)-5-{[5-(trifluoromethyl)pyrazin-2-yl]amino}-1,2-thiazole-4-carboxamide]
> 10000 nM	120 nM	CCNC(=O)c1cccc(NC(=O)c2c(C)nsc2Nc2ccc(C#N)cn2)c1 [Example 252, 5-[(5-cyanopyridin-2-yl)amino]-N-[3-(ethylcarbamoyl)phenyl]-3-methyl-1,2-thiazole-4-carboxamide]
10000 nM	20000 nM	CCN1CCC(Oc2ccc(NC(=O)c3c(C)nsc3Nc3cc(C#N)ccn3)cn2)CC1 [Example 26, 5-[(4-Cyanopyridin-2-yl)amino]-N-{6-[(1-ethylpiperidin-4-yl)oxy]pyridin-3-yl}-3-methyl-1,2-thiazole-4-carboxamide]
